Residue numbers refer to the chain shown, from its start.
Legend:
[1] = parameters: species or system Mice; conditions: in vivo
[2] = test system: acute brain slices exposed to 0-Mg; assay: late recurrent discharges in acute brain slices exposed to 0-Mg
[3] = molecular target: T1, KCC2-S940A (Homo sapiens, UniProt Q9H2X9, S963A); assay: Tl+ flux assay, HEK-293 cells expressing KCC2-S940A; assay type: cell-based
T1 construct: expressed in transfected cells; host or cells: HEK-293
T1 sequence (Q9H2X9 1-1116 isoform Q9H2X9-2 S940A): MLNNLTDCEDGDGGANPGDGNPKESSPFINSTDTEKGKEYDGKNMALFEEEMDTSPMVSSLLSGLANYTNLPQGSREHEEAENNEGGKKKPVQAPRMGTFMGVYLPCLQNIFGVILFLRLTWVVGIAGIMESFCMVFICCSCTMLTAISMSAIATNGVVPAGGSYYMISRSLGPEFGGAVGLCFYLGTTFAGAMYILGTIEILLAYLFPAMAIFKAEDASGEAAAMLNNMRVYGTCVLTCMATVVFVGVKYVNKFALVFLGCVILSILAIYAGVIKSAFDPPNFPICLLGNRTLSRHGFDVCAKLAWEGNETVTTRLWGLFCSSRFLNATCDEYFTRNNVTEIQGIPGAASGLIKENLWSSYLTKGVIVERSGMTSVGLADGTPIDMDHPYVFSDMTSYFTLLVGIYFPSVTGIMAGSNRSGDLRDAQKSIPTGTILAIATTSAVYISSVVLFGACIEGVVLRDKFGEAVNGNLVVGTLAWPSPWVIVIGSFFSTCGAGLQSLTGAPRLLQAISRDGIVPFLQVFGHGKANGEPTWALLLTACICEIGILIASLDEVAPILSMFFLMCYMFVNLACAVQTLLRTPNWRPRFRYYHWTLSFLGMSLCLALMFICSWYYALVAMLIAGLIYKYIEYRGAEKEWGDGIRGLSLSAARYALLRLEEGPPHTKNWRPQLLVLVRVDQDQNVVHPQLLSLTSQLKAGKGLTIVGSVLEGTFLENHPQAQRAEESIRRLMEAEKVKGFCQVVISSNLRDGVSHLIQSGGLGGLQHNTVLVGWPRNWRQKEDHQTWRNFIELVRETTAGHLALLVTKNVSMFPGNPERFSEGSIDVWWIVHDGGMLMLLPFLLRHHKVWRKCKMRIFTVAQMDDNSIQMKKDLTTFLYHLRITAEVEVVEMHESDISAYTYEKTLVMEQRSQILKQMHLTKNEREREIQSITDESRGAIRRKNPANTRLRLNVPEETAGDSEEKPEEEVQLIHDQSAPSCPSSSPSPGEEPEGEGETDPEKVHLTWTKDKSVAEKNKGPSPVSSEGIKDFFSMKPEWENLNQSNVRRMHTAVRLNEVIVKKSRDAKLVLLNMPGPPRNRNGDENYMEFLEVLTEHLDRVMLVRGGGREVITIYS
Description: FLIPR TI Flux assay. HEK-293 cells were washed with HBSS, and then incubated with loading buffer containing TI sensitive fluorescent dye (https://www.moleculardevices.com), 20 μM bumetanide 20 μM ouabain and 2.5 mM probenecid for 1 h at room temperature (RT) under control conditions or with drugs in the dark using a FlexStation 3 microplate reader (Molecular Devices) and imaged […] for 30 min. Stimulus buffer was added containing 5 mM K^+/0.5 mM Tl^+ and cells were imaged every 1.5 over a 190 second time course The initial rate Tl^+ uptake (Relative Fluorescence Units (RFU) per second) was determined following addition of the stimulus buffer as outlined previously (Conway et al., 2017, supra) (Lee et al., 2022, supra).
Several studies have shown that the activity and plasma membrane accumulation of KCC2 is potentiated via phosphorylation of S940, a process mediated by the activity of protein kinase C and protein phosphatase 1 (Lee et al., 2011, supra, Lee et al., J Biol Chem 282, 29777-29784 (2007); Moore et al., Proc. Natl. Acad. Sci. U.S.A 115, 10166-10171 (2018); Moore et al., Trends Neurosci. 40, 555-571 (2017); Silayeva et al., Proc. Natl. Acad. Sci. U.S.A 112, 3523-3528 (2015)). […] Compared to KCC2, effects on KCC3, KCC4, and NKCC1 were only seen at concentrations more than 35-fold that of KCC2 (>100 μM) (FIG. 1G).

[4] = PK studies, brain and plasma levels by LC-MS/MS; assay type: in vivo, Mice; conditions: 50 mg/kg SC
Description: PK studies. […] Plasma and brain samples were rapidly frozen on dry ice.
Drug accumulation in the brain was examined following SC injection (FIG. 4C; 50 mg/kg).

[5] = test system: panel of 144 protein kinases; assay: panel of 144 protein kinases (SelectScreen; Thermofisher); assay type: biochemical; conditions: 144 protein kinases incl. PKC isoforms, OSR1, SPAK, WNK
[6] = test system: neuronal cell death in the hippocampus; assay: neuronal cell death in the hippocampus, mice treated with Compound A and diazepam; assay type: in vivo; conditions: Compound A and diazepam vs diazepam alone
[7] = molecular target: T2, KCC2 (Homo sapiens, UniProt Q9H2X9); assay: cellular thermal shift assay (CETSA), HEK-293 cells expressing KCC2; assay type: binding
T2 construct: expressed in transfected cells; host or cells: HEK-293 (ATCC CRL-1573), transient transfection
T2 sequence (Q9H2X9 1-1116 isoform Q9H2X9-2): T1 sequence (Q9H2X9 1-1116 isoform Q9H2X9-2 S940A) with A940S
Description: Determining if compounds in SSA directly interact with KCC2. This was tested using a cellular thermal shift assay (CETSA), which measures the ability of a drug to modify the thermal stability of its target in whole cells (Kawatkar et al., ACS Chem. Biol. 14, 1913-1920 (2019); Martinez et al., Sci Rep 8, 9472 (2018)).
2×10^6 transfected HEK-293 cells were incubated with 30 μM drug or vehicle for 90 min at 37° C. and then heated from 37-58° C. for 5 min. Cells were rapidly chilled to 25° C. and NP40 was added to a final concentration […] to snap freezing in liquid nitrogen. Following 5 freeze/thaw cycles lysates were centrifuged at 12,000×g to remove denatured proteins and associated cell debris.
Aliquots of HEK-293 cells expressing KCC2 were exposed to 30 μM SSA, heated from 37-55° C. The remaining level of soluble native KCC2 at each temperature was measured by immunoblotting and normalized to the level seen at 37° C. which was given a value of 1. […] This panel included protein kinase C isoforms, OSR1, SPAK (STK39) and with-no-lysine kinases (WNK), all of which phosphorylate KCC2 on multiple residues to indirectly modify its activity (Kahle et al., 2013, supra; Smalley et al., 2020, supra).

- gross effects on mouse behavior [1]: no gross effects on mouse behavior
- activity of KCC2-S940A construct [3]: increased the activity
- accumulation in the brain at 30 min [4]: detected
- brain level 8 h later [4]: maintained
- time of maximal concentration in the brain [4]: 4 h
- activity of kinase panel [5]: did not modify the activity
- direct binding to KCC2 [7]: capable of directly binding to KCC2
SMILES: C[C@@H]1CN(c2nc3c(c(Nc4ccc(C5CCCCC5)cc4)n2)COC3)CCO1 [Compound A, (R)—N-(4-cyclohexylphenyl)-2-(2-methylmorpholino)-5,7-dihydrofuro[3,4-d]pyrimidin-4-amine]
- development of late recurrent discharges (LRDs) [2]: reduced
- neuronal cell death in the hippocampus [6]: significantly reduced

— patent US20260191875A1, “FUSED AMINO PYRIMIDINE COMPOUNDS FOR TREATMENT OF ADDICTION AND INSOMNIA” (Ovid Therapeutics Inc., priority 2024, published 2026)
